Biological target: T1, BtuR (ATP:Co(I)rrinoid adenosyltransferase) (Brucella melitensis, UniProt Q8YHV0)
T1 construct: gene BMEI0696
Conditions: excess cob(I)alamin as corrinoid substrate; inhibitor 5 μM; not a substrate itself

T1 sequence (Q8YHV0 1-189): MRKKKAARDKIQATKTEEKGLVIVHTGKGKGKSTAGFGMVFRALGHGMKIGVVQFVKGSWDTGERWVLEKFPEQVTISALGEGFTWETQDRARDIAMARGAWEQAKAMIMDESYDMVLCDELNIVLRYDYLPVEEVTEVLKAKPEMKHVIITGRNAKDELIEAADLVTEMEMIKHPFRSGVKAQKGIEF

## nibalamin [Nibl]
  % inhibition at 5 μM: 60%
